This note sets out measurements from patent publication US8637525B2, “Compounds for the reduction of beta-amyloid production” (Bristol-Myers Squibb Company, priority 2009, dated 2014).

Counter-ions that a name gives are not always drawn.

The subject of one experiment is Aβ1-42 production. As to the kind of experiment: Cellular assay for inhibition of Aβ1-42 production (H4 APP751 SWE clone 8.20). The format is cell-based. The following applies: 19 h, H4 APP751 SWE clone 8.20 cells, 19 h incubation; class symbols; read-out: Activity Rating (Aβ42 cellular IC50). In outline:
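Compound-treated cells were incubated 19 h at 37 °C in 5% CO2. Aβ42 in the cell plate was detected overnight at 4 °C with an Aβ42 neoepitope antibody (565, Wallac-labelled, 0.8 ng/well) plus N-terminal antibody 26D6 (APC, 75 ng/well) in 40 mM Tris-HCl pH 7.4, 0.2% BSA. IC50s came from curve fitting.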
For `COc1cc(Nc2nc(NC3CC3)c3c(n2)C(c2ccccc2)CC3)ccc1-n1cnc(Cl)c1` (stereo not drawn) [Example 8, N2-(4-(4-chloro-1H-imidazol-1-yl)-3-methoxyphenyl)-N4-cyclopropyl-7-phenyl-6,7-dihydro-5H-cyclopenta[d]pyrimidine-2,4-diamine], the 50% inhibitory concentration (IC50) fell in the range of 1.5 to 9.9 nM.

As to `CCNc1nc(Nc2ccc(-n3cnc(Cl)c3)c(OC)c2)nc2c1COCC2c1ccc(C(F)(F)F)cc1` (racemic) [Example 118, N2-(4-(4-chloro-1H-imidazol-1-yl)-3-methoxyphenyl)-N4-ethyl-8-(4-(trifluoromethyl)phenyl)-7,8-dihydro-5H-pyrano[4,3-d]pyrimidine-2,4-diamine, TFA], the IC50 lay within 10 to 100 nM.

For `CCN1Cc2c(nc(Nc3ccc(-n4cnc(Cl)c4)c(OC)c3)nc2N(C)CC)C(c2ccc(F)cc2)C1` (stereo not drawn) [Example 158, N2-(4-(4-chloro-1H-imidazol-1-yl)-3-methoxyphenyl)-N4,6-diethyl-8-(4-fluorophenyl)-N4-methyl-5,6,7,8-tetrahydropyrido[4,3-d]pyrimidine-2,4-diamine], the IC50 was in the range of 10 to 100 nM.

Consider `CCNc1nc(Nc2ccc(-n3cnc(C)n3)c(OC)c2)nc2c1COCC2c1ccc(F)cc1` (stereo not drawn) [Example 55B, N4-ethyl-8-(4-fluorophenyl)-N2-(3-methoxy-4-(3-methyl-1H-1,2,4-triazol-1-yl)phenyl)-7,8-dihydro-5H-pyrano[4,3-d]pyrimidine-2,4-diamine], for which the 50% inhibitory concentration (IC50) lay in the range of 10 to 100 nM.

In the case of `CCNc1nc(Nc2ccc(-n3cnc(Cl)c3)c(OC)c2)nc2c1CN(C(C)=O)CC2c1ccccc1` (stereo not drawn) [Example 137A, 1-(2-(4-(4-chloro-1H-imidazol-1-yl)-3-methoxyphenylamino)-4-(ethylamino)-8-phenyl-7,8-dihydropyrido[4,3-d]pyrimidin-6(5H)-yl)ethanone], the 50% inhibitory concentration (IC50) lay in the range of 1.5 to 9.9 nM.

Regarding `CNc1nc(Nc2ccc(-n3cnc(C)n3)c(F)c2)nc2c1CCC2c1ccc(F)cc1` (stereo not drawn) [Example 35, N^2-(3-fluoro-4-(3-methyl-1H-1,2,4-triazol-1-yl)phenyl)-7-(4-fluorophenyl)-N^4-methyl-6,7-dihydro-5H-cyclopenta[d]pyrimidine-2,4-diamine], the IC50 was in the range of 1.5 to 9.9 nM.

On to `COc1cc(Nc2nc3c(c(N4CCN(C)CC4)n2)CCC3c2ccc(F)cc2)ccc1-n1cnc(Cl)c1` (single isomer, unassigned) [Example 30A, N-(4-(4-chloro-1H-imidazol-1-yl)-3-methoxyphenyl)-7-(4-fluorophenyl)-4-(4-methylpiperazin-1-yl)-6,7-dihydro-5H-cyclopenta[d]pyrimidin-2-amine], for which the IC50 fell in the range of 10 to 100 nM.

Regarding `CC[C@H](COC)Nc1nc(Nc2ccc(-n3cnc(Cl)c3)c(OC)c2)nc2c1CCC2c1ccc(F)cc1` (single isomer, unassigned) [Example 48A], the IC50 was in the range of 1.5 to 9.9 nM.

For `CNc1nc(Nc2ccc(-n3cnc(Cl)c3)c(OC)c2)nc2c1CCC2c1ccc(F)cc1` (single isomer, unassigned) [Example 11B, N^2-(4-(4-Chloro-1H-imidazol-1-yl)-3-methoxyphenyl)-7-(4-fluorophenyl)-N^4-methyl-6,7-dihydro-5H-cyclopenta[d]pyrimidine-2,4-diamine], the IC50 fell in the range of 1.5 to 9.9 nM.

With `CNc1nc(Nc2ccc(-n3cnc(C)n3)c(OC)c2)nc2c1CC[C@H]2c1ccccc1Cl` (single isomer, unassigned) [Example 268A], the IC50 is 1.5 to 9.9 nM.

Turning to `CCOC1CN(c2nc(Nc3ccc(-n4cnc(Cl)c4)c(OC)c3)nc3c2CCC3c2ccc(F)cc2)C1` (stereo not drawn) [Example 187, N-(4-(4-chloro-1H-imidazol-1-yl)-3-methoxyphenyl)-4-(3-ethoxyazetidin-1-yl)-7-(4-fluorophenyl)-6,7-dihydro-5H-cyclopenta[d]pyrimidin-2-amine], the IC50 lay in the range of 10 to 100 nM.

Take `CNc1nc(Nc2nc3cc(C#N)ccc3[nH]2)nc2c1CCC2c1ccccc1` (stereo not drawn) [Example 232, 2-(4-(methylamino)-7-phenyl-6,7-dihydro-5H-cyclopenta[d]pyrimidin-2-ylamino)-1H-benzo[d]imidazole-5-carbonitrile]: the concentration for half-maximal inhibition (IC50) was over 1000 nM.

Turning to `CNc1nc(Nc2ccc(-n3cnc(C)n3)c(OC)c2)nc2c1CC[C@H]2c1ccc(Cl)cc1F` (single isomer, unassigned) [Example 271A], the half-inhibitory concentration (IC50) was 1.5 to 9.9 nM.

Consider `CNc1nc(Nc2ccc(-n3cnc(Cl)c3)c(OC)c2)nc2c1CCC2c1ccc(F)c(F)c1` (racemic) [Example 96, N^2-(4-(4-Chloro-1H-imidazol-1-yl)-3-methoxyphenyl)-7-(3,4-difluorophenyl)-N^4-methyl-6,7-dihydro-5H-cyclopenta[d]pyrimidine-2,4-diamine], for which the half-maximal inhibitory concentration (IC50) is 1.5 to 9.9 nM.

On to `CCNc1nc(Nc2ccc(-n3ncnc3C)c(F)c2)nc2c1COCC2c1ccc(F)cc1` (racemic) [Example 59, N4-ethyl-N2-(3-fluoro-4-(5-methyl-1H-1,2,4-triazol-1-yl)phenyl)-8-(4-fluorophenyl)-7,8-dihydro-5H-pyrano[4,3-d]pyrimidine-2,4-diamine], for which the IC50 was 10 to 100 nM.

Turning to `CNc1nc(Nc2ccc(-n3cnc(C)n3)c(OC)c2)nc2c1CCC2c1ccc(C(F)(F)F)nc1` (stereo not drawn) [Example 276, N2-(3-methoxy-4-(3-methyl-1H-1,2,4-triazol-1-yl)phenyl)-N4-methyl-7-(6-(trifluoromethyl)pyridin-3-yl)-6,7-dihydro-5H-cyclopenta[d]pyrimidine-2,4-diamine], the concentration for half-maximal inhibition (IC50) was in the range of 10 to 100 nM.

Staying with this experiment, now noted: 19 h, H4 APP751 SWE clone 8.20 cells, 19 h incubation; read-out: Activity Rating (Aβ42 cellular IC50), numeric value.
Take `CCNc1nc(Nc2ccc(-n3cnc(C)n3)c(F)c2)nc2c1CN(C(=O)C1CC1)CC2c1ccccc1` (stereo not drawn) [Example 143B, cyclopropyl(4-(ethylamino)-2-(3-fluoro-4-(3-methyl-1H-1,2,4-triazol-1-yl)phenylamino)-8-phenyl-7,8-dihydropyrido[4,3-d]pyrimidin-6(5H)-yl)methanone]: the half-inhibitory concentration (IC50) amounted to 430 nM.

For the compound `CCNc1nc(Nc2ccc(-n3ncnc3C)c(F)c2)nc2c1COC2c1ccc(F)cc1` (single isomer, unassigned) [Example 78A, N^4-ethyl-N^2-(3-fluoro-4-(5-methyl-1H-1,2,4-triazol-1-yl)phenyl)-7-(4-fluorophenyl)-5,7-dihydrofuro[3,4-d]pyrimidine-2,4-diamine], the IC50 came to 19 nM.

`CNc1nc(Nc2ccc(Br)c(OC)c2)nc2c1CCC2c1ccccc1` (stereo not drawn) [Example 256, N2-(4-bromo-3-methoxyphenyl)-N4-methyl-7-phenyl-6,7-dihydro-5H-cyclopenta[d]pyrimidine-2,4-diamine]: the concentration for half-maximal inhibition (IC50) turned out to be 97 nM.

Staying with this experiment, now noted: H4 APP751 SWE clone 8.20 cells, 19 h incubation; class symbols; TFA; read-out: Activity Rating (Aβ42 cellular IC50).
As to `COc1cc(Nc2nc3c(c(N4CC[C@@H](F)C4)n2)COC3c2ccc(F)cc2)ccc1-n1cnc(Cl)c1` (mixture of isomers) [Example 83, N-(4-(4-chloro-1H-imidazol-1-yl)-3-methoxyphenyl)-7-(4-fluorophenyl)-4-((R)-3-fluoropyrrolidin-1-yl)-5,7-dihydrofuro[3,4-d]pyrimidin-2-amine, 2 TFA], the IC50 lay within 10 to 100 nM.

Still in this experiment, the particulars now being: H4 APP751 SWE clone 8.20 cells, 19 h incubation; class symbols; read-out: Activity Rating (Aβ42 cellular IC50).
Take `CNc1nc(Nc2ccc(-n3cnc(C)n3)c(OC)c2)nc2c1COCC2c1ccc(Cl)cc1` (single isomer, unassigned) [Example 71B, 8-(4-chlorophenyl)-N^2-(3-methoxy-4-(3-methyl-1H-1,2,4-triazol-1-yl)phenyl)-N^4-methyl-7,8-dihydro-5H-pyrano[4,3-d]pyrimidine-2,4-diamine]: the IC50 was 10 to 100 nM.

`COc1cc(Nc2nc3c(c(N(C)C)n2)CCC3c2ccccc2)ccc1-n1cnc(Cl)c1` (single isomer, unassigned) [Example 4B, N^2-(4-(4-chloro-1H-imidazol-1-yl)-3-methoxyphenyl)-N^4,N^4-dimethyl-7-phenyl-6,7-dihydro-5H-cyclopenta[d]pyrimidine-2,4-diamine]: the IC50 lay within 10 to 100 nM.

In the case of `COc1cc(Nc2nc3c(c(N4CC(F)C4)n2)CCC3c2ccccc2)ccc1-n1cnc(Cl)c1` (stereo not drawn) [Example 182, N-(4-(4-chloro-1H-imidazol-1-yl)-3-methoxyphenyl)-4-(3-fluoroazetidin-1-yl)-7-phenyl-6,7-dihydro-5H-cyclopenta[d]pyrimidin-2-amine], the IC50 fell in the range of 10 to 100 nM.

`CCNc1nc(Nc2ccc(-n3cnc(Cl)c3)c(OC)c2)nc2c1CN(C(=O)OC)CC2c1ccccc1` (stereo not drawn) [Example 131, Methyl 2-(4-(4-chloro-1H-imidazol-1-yl)-3-methoxyphenylamino)-4-(ethylamino)-8-phenyl-7,8-dihydropyrido[4,3-d]pyrimidine-6(5H)-carboxylate]: the half-inhibitory concentration (IC50) lay in the range of 10 to 100 nM.

For the compound `COc1cc(Nc2nc3c(c(N4CCCC4C)n2)CCC3c2ccc(F)cc2)ccc1-n1cnc(Cl)c1` (single isomer, unassigned) [Example 19A, N-(4-(4-chloro-1H-imidazol-1-yl)-3-methoxyphenyl)-7-(4-fluorophenyl)-4-(2-methylpyrrolidin-1-yl)-6,7-dihydro-5H-cyclopenta[d]pyrimidin-2-amine], the IC50 is 10 to 100 nM.

With `CCNc1nc(Nc2ccc(-n3cnc(Cl)c3)c(OC)c2)nc2c1COCC2c1cc(F)cc(F)c1` (stereo not drawn) [Example 112B, N2-(4-(4-chloro-1H-imidazol-1-yl)-3-methoxyphenyl)-8-(3,5-difluorophenyl)-N4-ethyl-7,8-dihydro-5H-pyrano[4,3-d]pyrimidine-2,4-diamine], the IC50 lay within 10 to 100 nM.

Regarding `COc1cc(Nc2nc3c(c(N4CCC(F)(F)C4)n2)CCC3c2cc(F)c(F)c(F)c2)ccc1-n1cnc(Cl)c1` (single isomer, unassigned) [Example 107A, N-(4-(4-chloro-1H-imidazol-1-yl)-3-methoxyphenyl)-4-(3,3-difluoropyrrolidin-1-yl)-7-(3,4,5-trifluorophenyl)-6,7-dihydro-5H-cyclopenta[d]pyrimidin-2-amine], the concentration for half-maximal inhibition (IC50) was 10 to 100 nM.
